Laboratory results as given in patent publication US20260297060A1, “COMPOUNDS FOR THE DEGRADATION OF MUTANT BRAF” (C4 THERAPEUTICS, INC., priority 2023, published 2026).
Like-named read-outs stand apart in the source and are kept apart here.

Columns and labels:
[1] = biological target: T1, human bile salt export pump (BSEP) efflux transporter (Homo sapiens, UniProt O95342); assay: BSEP Vesicular Transport Inhibition Assay (IC50 determination); format: biochemical; details: human BSEP (HEK293) vesicles; taurocholate 0.2 μM; 4 mM Mg-ATP; 10 concentrations, 1 replicate; in nM
T1 construct: purchased SOLVO Biotechnology Charles River Laboratories, Szeged, Hungary; host or cells: HEK293 (inside out membrane vesicles)
T1 sequence (O95342 whole entry): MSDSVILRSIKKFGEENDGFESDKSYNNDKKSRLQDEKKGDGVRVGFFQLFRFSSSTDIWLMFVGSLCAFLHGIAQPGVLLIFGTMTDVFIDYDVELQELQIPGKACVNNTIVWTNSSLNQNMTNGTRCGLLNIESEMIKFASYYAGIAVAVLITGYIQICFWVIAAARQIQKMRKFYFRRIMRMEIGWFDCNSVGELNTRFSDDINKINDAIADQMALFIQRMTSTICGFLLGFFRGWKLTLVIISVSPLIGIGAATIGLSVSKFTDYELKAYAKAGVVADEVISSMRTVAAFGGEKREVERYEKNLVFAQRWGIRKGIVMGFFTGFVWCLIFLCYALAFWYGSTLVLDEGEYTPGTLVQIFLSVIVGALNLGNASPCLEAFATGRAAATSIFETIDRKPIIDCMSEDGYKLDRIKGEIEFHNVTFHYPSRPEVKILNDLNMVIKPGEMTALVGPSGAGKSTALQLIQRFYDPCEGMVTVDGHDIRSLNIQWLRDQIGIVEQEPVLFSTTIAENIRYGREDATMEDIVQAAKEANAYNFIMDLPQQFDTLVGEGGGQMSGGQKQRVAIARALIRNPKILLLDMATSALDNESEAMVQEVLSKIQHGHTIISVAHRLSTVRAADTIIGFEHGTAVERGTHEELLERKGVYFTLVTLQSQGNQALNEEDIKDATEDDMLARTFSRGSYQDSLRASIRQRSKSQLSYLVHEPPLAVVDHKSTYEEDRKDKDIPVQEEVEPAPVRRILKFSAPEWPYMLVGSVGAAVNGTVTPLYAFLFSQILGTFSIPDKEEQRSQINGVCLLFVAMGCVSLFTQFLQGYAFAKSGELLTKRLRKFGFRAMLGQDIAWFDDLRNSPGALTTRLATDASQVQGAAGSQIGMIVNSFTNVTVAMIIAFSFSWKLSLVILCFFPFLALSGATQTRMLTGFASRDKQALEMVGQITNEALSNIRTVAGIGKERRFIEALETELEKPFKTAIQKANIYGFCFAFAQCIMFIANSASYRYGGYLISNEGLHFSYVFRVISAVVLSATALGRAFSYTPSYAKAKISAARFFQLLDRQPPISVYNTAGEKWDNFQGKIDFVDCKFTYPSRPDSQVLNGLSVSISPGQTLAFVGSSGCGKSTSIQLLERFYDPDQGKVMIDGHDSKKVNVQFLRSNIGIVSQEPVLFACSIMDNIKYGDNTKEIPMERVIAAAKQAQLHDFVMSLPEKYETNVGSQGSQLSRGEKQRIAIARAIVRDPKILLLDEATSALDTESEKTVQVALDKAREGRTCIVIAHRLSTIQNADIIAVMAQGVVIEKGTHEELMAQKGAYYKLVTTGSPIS
In short: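 Inside-out membrane vesicles from HEK293 cells expressing human BSEP were incubated with taurocholate probe substrate and compound (10 concentrations, single replicate) with 4 mM Mg-ATP, or 4 mM AMP for background, for 5 min at 37 °C. Vesicle-trapped substrate was quantified by liquid scintillation counting after filtration.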

[2] = Example 6 pharmacokinetics assay for PKPD study (plasma, tumor, liver); format: in vivo, BALB/c nude mice; details: mouse, po, single dose
Procedure: For the pharmacokinetic/pharmacodynamic (PKPD) study, compounds were tested in the A375 human melanoma xenografts. Known BRAF inhibitors encorafenib, and dabrafenib were used as positive controls. Encorafenib, dabrafenib, Compound 83, Compound 93, Compound 70, and Compound 54 were administered to BALB/c nude mice bearing A375 tumors on PG-D1 and dosed orally (PO) once. Encorafenib was dosed at 35 mg/kg. Dabrafenib was dosed at 100 mg/kg. Compound 83, Compound 93, Compound 70, and Compound 54 were dosed at 10 mg/kg. The plasma and tumor samples were collected at 1, 6, 12 and 24 hours, and liver samples were collected at 6 hours and 12 hours post the single dose. This study was non-GLP study.
The plasma samples were collected at predetermined time points for PK analysis. The mice were euthanized at predetermined time points post the treatment. The blood samples were collected into the 1.5 mL Eppendorf tubes containing 15 μL of 0.5 M EDTA-K2. And then the anticoagulant blood samples were centrifuged at 2,500 g at 4° C. for 15 minutes. The plasma samples were separated into 2 aliquots. The 1st was used for PK analysis, and the 2nd served as backup. The samples were stored at −80° C. before bioanalysis.
The tumor samples were collected at predetermined time points for PK and WB analysis (B-RAF and p-ERK). The tumor was dissected out and split into 3 parts. The 1st part was used for PK analysis, the 2nd part was used for WB analysis and the last one served as backup for study. The samples were transferred into pre-labeled tubes and quickly froze in liquid nitrogen within 2 minutes after dissection. The samples were stored at −80° C. before bioanalysis.
Liver samples were collected at predetermined time points for PK analysis. The left lobe of the liver was dissected out and split into 2 parts. The 1st part was used for PK analysis and the 2nd part served as the backup for the study. The samples were transferred into pre-labeled tubes and quickly froze in liquid nitrogen within 2 minutes after dissection. The samples were stored at −80° C. before bioanalysis.
For PKPD study, the harvested plasma, tumor and liver were processed for pharmacokinetics analysis by LC/MS/MS with a concentration range of 0.5-1000 ng/mL for Encorafenib and Dabrafenib in plasma, 0.05-100 ng/mL for Encorafenib and Dabrafenib in tumor, 0.2-200 ng/mL for Encorafenib and Dabrafenib in liver, 2.0-2000 ng/mL for compound 93, compound 83, compound 54 and compound 70 in liver, 50.0-50000 ng/mL for compound 83 and compound 70 in plasma, 0.5-1000 ng/mL for compound 83 and compound 70 in tumor, 1.0-2000 ng/mL for compound 93 in plasma, 10.0-20000 ng/mL for compound 54 in plasma, 0.5-500 ng/mL for compound 93 and compound 54 in tumor.

[3] = liver, 35 mg/kg, read-out: Concentration in Liver (mean ± SEM)
[4] = plasma, 35 mg/kg, read-out: Concentration in Plasma (mean ± SEM)
[5] = tumor, 35 mg/kg, read-out: Concentration in Tumor (mean ± SEM)
[6] = liver, 100 mg/kg, read-out: Concentration in Liver (mean ± SEM)
[7] = plasma, 100 mg/kg, read-out: Concentration in Plasma (mean ± SEM)
[8] = tumor, 100 mg/kg, read-out: Concentration in Tumor (mean ± SEM)

For `COC1CN(S(=O)(=O)Nc2ccc(F)c(Oc3ccc4ncn(C5CC6(CCN(C7CC8(C7)CN(c7cc9c(cc7F)c(N7CCC(=O)NC7=O)nn9C)C8)CC6)C5)c(=O)c4c3)c2C#N)C1` (stereo not shown) [Compound 280, N-[2-cyano-3-[3-[7-[2-[3-(2,4-dioxohexahydropyrimidin-1-yl)-5-fluoro-1-methyl-indazol-6-yl]-2-azaspiro[3.3]heptan-6-yl]-7-azaspiro[3.5]nonan-2-yl]-4-oxo-quinazolin-6-yl]oxy-4-fluoro-phenyl]-3-methoxy-azetidine-1-sulfonamide], the “BSEP Inhibition/IC50” value [1] was 26550.
With `CO[C@@H]1CCN(S(=O)(=O)Nc2ccc(F)c(Oc3ccc4ncn(C5CC6(CCN(C7CC8(C7)CN(c7cc9c(cc7F)c(N7CCC(=O)NC7=O)nn9C)C8)CC6)C5)c(=O)c4c3)c2C#N)C1` (stereo partly drawn) [Compound 269, (3R)-N-[2-cyano-3-[3-[7-[2-[3-(2,4-dioxohexahydropyrimidin-1-yl)-5-fluoro-1-methyl-indazol-6-yl]-2-azaspiro[3.3]heptan-6-yl]-7-azaspiro[3.5]nonan-2-yl]-4-oxo-quinazolin-6-yl]oxy-4-fluoro-phenyl]-3-methoxy-pyrrolidine-1-sulfonamide] the “BSEP Inhibition/IC50” value [1] was >40000.
`COC(=O)N[C@@H](C)CNc1nccc(-c2cn(C(C)C)nc2-c2cc(Cl)cc(NS(C)(=O)=O)c2F)n1` [Encorafenib, encorafenib, reference compound] showed a concentration at 6 h [2, 3] of 375 ± 82 ng/g, a concentration at 12 h [2, 3] of 12.6 ± 5.14 ng/g and a concentration at 1 h [2, 4] of 5720 ± 493 ng/mL. The concentration at 6 h [2, 4] was 654 ± 169 ng/mL, the concentration at 12 h [2, 4] was 17.3 ± 7.09 ng/mL and the concentration at 24 h [2, 4] was 0.895 ng/mL. For the same compound, the concentration at 1 h [2, 5] was 1250 ± 161 ng/g, the concentration at 6 h [2, 5] was 135 ± 22.8 ng/g and the concentration at 12 h [2, 5] was 18.1 ± 7.47 ng/g. The concentration at 24 h [2, 5] was 2.63 ± 0.386 ng/g.
In the case of `CC(C)(C)c1nc(-c2cccc(NS(=O)(=O)c3c(F)cccc3F)c2F)c(-c2ccnc(N)n2)s1` [Dabrafenib, dabrafenib, reference compound], the concentration at 6 h [2, 6] is reported as 157 ± 12.3 ng/g, the concentration at 12 h [2, 6] is reported as 19.2 ± 5.84 ng/g and the concentration at 1 h [2, 7] is reported as 276 ± 17.2 ng/mL. The concentration at 6 h [2, 7] was 46.2 ± 5.05 ng/mL, the concentration at 12 h [2, 7] was 6.74 ± 2.73 ng/mL and the concentration at 24 h [2, 7] was 0.725 ± 0.11 ng/mL. The concentration at 1 h [2, 8] was 225 ± 29.2 ng/g, the concentration at 6 h [2, 8] was 32.8 ± 0.26 ng/g and the concentration at 12 h [2, 8] was 9.59 ± 1.68 ng/g. For the same compound, the concentration at 24 h [2, 8] was 1.34 ± 0.369 ng/g.
